pIC50: −log10 of the molar value.
Columns and labels:
ASK1/MAP3K5 = target: T1, ASK1/MAP3K5 (Homo sapiens, UniProt Q99683); assay: ASK1/MAP3K5 kinase assay by Reaction Biology Corp. (headed ASK1 TR-FRET Assay); type: biochemical; details: 20 μM myelin basic protein, 10 μM ATP, class symbols
T1 sequence (Q99683 1-1374): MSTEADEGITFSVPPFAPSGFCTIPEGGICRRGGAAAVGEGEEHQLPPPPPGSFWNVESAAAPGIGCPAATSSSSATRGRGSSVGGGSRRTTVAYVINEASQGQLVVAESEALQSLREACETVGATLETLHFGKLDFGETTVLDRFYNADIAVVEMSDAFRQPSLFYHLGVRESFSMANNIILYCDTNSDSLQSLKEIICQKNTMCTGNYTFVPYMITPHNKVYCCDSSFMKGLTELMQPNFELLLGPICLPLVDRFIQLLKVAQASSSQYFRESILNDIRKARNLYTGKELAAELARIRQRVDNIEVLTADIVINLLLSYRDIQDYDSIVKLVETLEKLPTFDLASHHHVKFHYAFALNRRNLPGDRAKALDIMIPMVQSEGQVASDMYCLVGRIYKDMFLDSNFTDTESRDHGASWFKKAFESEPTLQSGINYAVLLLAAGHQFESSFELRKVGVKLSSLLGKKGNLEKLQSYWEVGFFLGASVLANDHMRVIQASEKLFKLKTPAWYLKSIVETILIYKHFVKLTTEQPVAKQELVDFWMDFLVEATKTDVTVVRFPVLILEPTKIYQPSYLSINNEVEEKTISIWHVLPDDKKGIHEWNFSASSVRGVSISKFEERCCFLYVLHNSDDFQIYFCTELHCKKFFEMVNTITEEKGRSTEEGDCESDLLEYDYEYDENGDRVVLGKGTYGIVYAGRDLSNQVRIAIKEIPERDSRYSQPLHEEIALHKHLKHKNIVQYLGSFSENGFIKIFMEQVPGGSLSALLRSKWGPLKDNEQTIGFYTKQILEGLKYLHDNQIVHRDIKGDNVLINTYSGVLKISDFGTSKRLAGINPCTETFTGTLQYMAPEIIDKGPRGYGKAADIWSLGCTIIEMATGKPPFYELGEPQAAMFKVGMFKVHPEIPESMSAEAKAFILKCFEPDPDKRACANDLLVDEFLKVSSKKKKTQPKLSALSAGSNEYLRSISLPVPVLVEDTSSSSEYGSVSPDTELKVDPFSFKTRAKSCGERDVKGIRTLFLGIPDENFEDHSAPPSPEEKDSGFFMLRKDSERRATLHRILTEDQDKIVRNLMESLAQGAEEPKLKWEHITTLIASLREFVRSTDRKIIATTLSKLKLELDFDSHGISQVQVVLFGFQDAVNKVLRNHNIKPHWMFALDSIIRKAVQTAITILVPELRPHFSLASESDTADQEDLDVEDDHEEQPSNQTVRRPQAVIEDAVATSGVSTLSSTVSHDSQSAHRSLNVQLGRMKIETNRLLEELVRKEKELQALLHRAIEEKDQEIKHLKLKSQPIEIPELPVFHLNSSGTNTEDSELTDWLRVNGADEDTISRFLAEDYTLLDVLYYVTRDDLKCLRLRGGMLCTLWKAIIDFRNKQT
Protocol: Example 111: Brief Description of ASK1 TR-FRET Assay The protein kinase inhibitory activity of the compounds described herein were tested using the ASK1/MAP3K5 assay by Reaction Biology Corp. (Malvern, PA). The assay procedure follows (and is also available on the Reaction Biology Corp. website). Base Reaction Buffer: 20 mM Hepes (pH 7.5), 10 mM MgCl2, 1 mM EGTA, 0.02% Brij35, 0.02 mg/mL BSA, 0.1 mM Na3VO4, 2 mM DTT, 1% DMSO; Substrate: 20 μM of myelin basic protein (MBP) and 10 μM ATP; Protein kinase: ASK1/MAP3K5. Reaction Procedure: • 1. Prepare indicated substrate in freshly prepared Base Reaction Buffer. • 2. Deliver any required cofactors to the substrate solution. • 3. Deliver indicated kinase into the substrate solution and gently mix. • 4. Deliver compounds in DMSO into the kinase reaction mixture by Acoustic; technology (Echo550; nanoliter range), incubate for 20 minutes at room temperature. • 5. Deliver ^33P-ATP (specific activity 10 μCi/μL) into the reaction mixture to initiate the reaction. • 6. Incubate kinase reaction for 2 hours at room temperature. • 7. Reactions are spotted onto P81 ion exchange paper. • 8. Detect kinase activity by filter-binding method.

[1] = target: T2, ASK1 T838 auto phosphorylation (Homo sapiens, UniProt Q99683); assay: ASK1 (AUTO PHOS T838) assay, MSD format, in HEK-293T cells transfected with ASK1-V5; type: cell-based; details: ASK1 T838 auto phosphorylation in HEK-293T cells, 1 hr compound incubation; class symbols
T2 sequence (Q99683 1-1374): T1 sequence (Q99683 1-1374)
Protocol: Example 112: Brief Description of ASK1(AUTO PHOS T838) Assay ASK1 T838 auto phosphorylation was measured in HEK-293T cells using MSD assay format. HEK 293T cells were seeded in 15 cm plates at a density of 18 million cells and 20 mL DMEM with 10% FBS, Pen/Strep media. The plates were incubated at 37° C. overnight. Media on plates was changed to OPTI-MEM, serum free media and cells were transfected with 9 μg of ASK1-V5 tagged full length plasmid using Lipofectamine 2000 (Invitrogen) and the plates were incubated at 37° C. overnight. Cells were trypsinized, counted on Nexcellometer and plated into 96 well tissue culture plates with 100,000 cells/well and 200 μL media. Cells were incubated for 4 hr at 37° C. then ASK1 compounds were added using a HP 300e. Compounds were tested at 20 μM with 3 fold, 10 point dilution points then incubated for 1 hr at 37° C. A lysis buffer (Cell Signaling) was prepared with protease and phosphatase inhibitor and maintained at 4° C. until use. Media from cells was discarded and 120 μL of cold lysis buffer was added to the cells, the plate was shaken 4° C. for 1 hr. Lysate was mixed using Apricot liquid handler; aspirating up and down 16 times at high speed using 50 μL volume. […] Plates were then incubated on a plate shaker overnight at 4° C. Plates were washed 3× with MSD wash buffer and 50 μL of rabbit anti-pASK1 T838 antibody was added to the wells and incubated for 2 hr at room temperature on a plate shaker. Plates were then washed and 50 μL of goat anti-rabbit sulfa-tag (1:500 dilution) was added to wells, and incubated for 1 hr at room temperature on a plate shaker. […] Plates were immediately read on a MSD Instrument Reader where chemoluminescence signal was measured. Data was analyzed using Graph Pad or Genedata, the data was normalized and plotted, % activity versus log of compound concentration. The IC50 values were obtained from a 4 parameter fit. The compounds described herein were tested for in the above cell-based assay.

Row | SMILES | pIC50 (ASK1/MAP3K5) | pIC50 [1]
1 | COCCn1cc(C(=O)Nc2cccc(-c3nncn3[C@@H](C)C(F)(F)F)n2)c(OC)n1 [Example 52, (S)-3-Methoxy-1-(2-methoxyethyl)-N-(6-(4-(1,1,1-trifluoropropan-2-yl)-4H-1,2,4-triazol-3-yl)pyridin-2-yl)-1H-pyrazole-4-carboxamide] | ≥ 7.00 | ≥ 6.00
2 | COc1nn(C)cc1C(=O)Nc1cccc(-c2nncn2[C@H](C)CO)n1 (single isomer, unassigned) [Example 36] | ≥ 7.00 | ≥ 6.00
3 | COc1nn(C)cc1C(=O)Nc1cccc(-c2nncn2[C@H]2CCOC2)n1 (single isomer, unassigned) [Example 110] | ≥ 7.00 | ≥ 6.00
4 | COc1nn(-c2cncc(O)c2)cc1C(=O)Nc1cccc(-c2nncn2C(C)C)n1 [Example 70, 1-(5-Hydroxypyridin-3-yl)-N-(6-(4-isopropyl-4H-1,2,4-triazol-3-yl)pyridin-2-yl)-3-methoxy-1H-pyrazole-4-carboxamide] | ≥ 7.00 | 5.00 to 6.00
5 | COc1cncc(-n2cc(C(=O)Nc3cccc(-c4cncn4C(C)C)n3)c(C(F)F)n2)c1 [Example 97, 3-(Difluoromethyl)-N-(6-(1-isopropyl-1H-imidazol-5-yl)pyridin-2-yl)-1-(5-methoxypyridin-3-yl)-1H-pyrazole-4-carboxamide] | ≥ 7.00 | ≥ 6.00
6 | COc1nn(CC(F)(F)F)cc1C(=O)Nc1cccc(-c2nncn2C(C)C)n1 [Example 102, N-(6-(4-Isopropyl-4H-1,2,4-triazol-3-yl)pyridin-2-yl)-3-methoxy-1-(2,2,2-trifluoroethyl)-1H-pyrazole-4-carboxamide] | ≥ 7.00 | ≥ 6.00
7 | COc1cncc(-n2cc(C(=O)Nc3cccc(-c4nncn4C(C)C)n3)c(OC)n2)c1 [Example 71, N-(6-(4-Isopropyl-4H-1,2,4-triazol-3-yl)pyridin-2-yl)-3-methoxy-1-(5-methoxypyridin-3-yl)-1H-pyrazole-4-carboxamide] | ≥ 7.00 | ≥ 6.00
8 | COc1nn(C)cc1C(=O)Nc1cccc(-c2nncn2[C@@H]2CCOC2)n1 (single isomer, unassigned) [Example 109] | ≥ 7.00 | ≥ 6.00
9 | Cc1cncc(-n2cc(C(=O)Nc3cccc(-c4nncn4C(C)C)n3)c(C(F)F)n2)c1 [Example 75, 3-(Difluoromethyl)-N-(6-(4-isopropyl-4H-1,2,4-triazol-3-yl)pyridin-2-yl)-1-(5-methylpyridin-3-yl)-1H-pyrazole-4-carboxamide] | ≥ 7.00 | ≥ 6.00
10 | COc1nn(-c2cccnn2)cc1C(=O)Nc1cccc(-c2nncn2C(C)C)n1 [Example 84, N-(6-(4-Isopropyl-4H-1,2,4-triazol-3-yl)pyridin-2-yl)-3-methoxy-1-(pyridazin-3-yl)-1H-pyrazole-4-carboxamide] | ≥ 7.00 | ≥ 6.00
11 | COc1nn(Cc2ccccc2)cc1C(=O)Nc1cccc(-c2nncn2C(C)C)n1 [Example 8, 1-Benzyl-N-(6-(4-isopropyl-4H-1,2,4-triazol-3-yl)pyridin-2-yl)-3-methoxy-1H-pyrazole-4-carboxamide] | ≥ 7.00 | ≥ 6.00
12 | COc1nn(-c2cncc(C)c2)cc1C(=O)Nc1cccc(-c2nncn2C(C)C)n1 [Example 67, N-(6-(4-Isopropyl-4H-1,2,4-triazol-3-yl)pyridin-2-yl)-3-methoxy-1-(5-methylpyridin-3-yl)-1H-pyrazole-4-carboxamide] | ≥ 7.00 | ≥ 6.00
13 | COc1nn(CC(F)(F)F)cc1C(=O)Nc1cccc(-c2nncn2C2CC2)n1 [Example 105, N-(6-(4-Cyclopropyl-4H-1,2,4-triazol-3-yl)pyridin-2-yl)-3-methoxy-1-(2,2,2-trifluoroethyl)-1H-pyrazole-4-carboxamide] | ≥ 7.00 | ≥ 6.00
